Data published in patent US9376499B2, “PAR-1 activation by metalloproteinase-1 (MMP-1)” (Tufts Medical Center, Inc., priority 2009, dated 2016).
No end group written: not given here.

Key:
platelets [1] = assay: Collagen-dependent aggregation of gel-filtered human platelets (light transmittance); format: cell-based; settings: for inhibition (loss) of collagen-induced platelet aggregation: 5 μg/ml collagen, 1,10-PA 100 μM, MMP-200 200 nM, FN-439 3 μM, RWJ-56110 1 μM, PAR1 Ab 75 μg/ml, pepducins 3 μM, PPACK 200 μM, hirudin 1 U/ml
Description: Platelet pellets and their supernatants were prepared as follows. […] following established informed consent procedures. […] Alternatively, whole blood was obtained from Hartley Sprague guinea pigs (drawn from the vena cava) into 3% citrate plus 10 U/ml heparin. Washed platelets from the guinea pigs were prepared in PIPES buffer. Platelet aggregation was measured with a Chronolog 560VS/490-2D aggregometer using modified PIPES buffer as a blank. Samples were incubated for 5 min in the presence of inhibitors and 1.8 mM CaCl2 prior to addition of agonist. All reactions were in final volumes of 250 μl at 37° C. while stirring at 900 rpm.
The effect of pharmacologic blockage of metalloproteases or PAR1 on collagen-dependent platelet aggregation was then tested (see FIG. 5). Gel-filtered platelets from healthy individuals (supplemented with 0.3 mg/ml fibrinogen) were challenged with 5 μg/ml collagen in the presence or absence (0.2% DMSO vehicle) of the indicated inhibitors and allowed to stir at 900 rpm in an aggregometer cuvette (250 μL) at 37° C.
In FIG. 5A, platelet aggregation was monitored by light transmittance.

[2] = Carotid artery FeCl3 injury arterial thrombosis model; format: in vivo, guinea pig; settings: bivalirudin 0.18 mg/kg i.v.; from 13 min without
Source text: To assess the efficacy on arterial thrombosis by blockade of thrombin, MMP-1, or PAR1, a standard carotid artery FeCl3 injury model was used in guinea pigs. FeCl3 causes denudation of the artery and exposure of type I collagen and other subendothelial matrix proteins. The effects of blocking thrombin with bivalirudin, MMP-1 with FN-439, and PAR1 with either the small molecule antagonist RWJ-56110 or the P1pal-7 pepducin on arterial thrombosis were then compared using a dopier probe.
For these arterial thrombosis experiments, 10 min after i.v. administration of vehicle (−), bivalirudin, RWJ-56110, P1 pal-7 or FN-439 (n=4-5) through the jugular vein at the indicated concentrations, the right carotid arteries were injured for 20 min using a 24 mm^2 piece of Bio-Rad Trans-Blot paper soaked in 20% FeCl3. Arterial flow 5 mm distal to the site of injury was measured with a 0.5 V Doppler probe (Transonic Systems). An arterial occlusion was defined as a flow rate of <0.01 V for ≧5 min. Doppler measurements were terminated at the 30 min time point following injury (* designates p<0.05).

PAR1 [3] = assay: Release of PAR1 N-terminal cleavage peptide from gel-filtered platelets (dot blot, IIaR-A antibody); format: cell-based, human
Source text: To further understand how collagen is able to activate significant amounts of endogenous MMP-1 collagenase activity on the surface of platelets, experiments were devised to determine if PAR-1 is cleaved in either an autocrine or paracrine manner following exposure to collagen. Using a monoclonal antibody raised against the amino-terminal thrombin-cleavage peptide region of PAR1, residues 32-46 (Loew et al., 2000), the relative abilities of thrombin, MMP-1 and collagen to cause cleavage of platelet PAR1 was assessed. Gel filtered platelets were treated for 10 min with thrombin (3 nM), MMP-1 (3 nM), collagen (5 μg/ml), in the presence or absence (PBS buffer) of 0.00013 U hirudin or 5 μM FN-439 at 37° C. Supernatants were concentrated 20-fold and applied to nitrocellulose membranes, then probed with the IIaR-A monoclonal antibody. The PAR1 N-terminal thrombin deavage peptide (A26-R41) and PAR1 flexible linker peptide (N-acetyl-T67-L84 -C) (Kuliopulos et al., 1999) served as positive and negative controls (100 ng), respectively.
These platelets were then stimulated with collagen (5 μg/ml) for 10 min. at 37° C. Supernatants were concentrated 20-fold and applied to nitrocellulose membranes, then probed with the IIaR-A monoclonal antibody. […] FN-439, or an MMP1-blocking antibody (20 μg/ml) but not by thrombin inhibitor, hirudin (see FIG. 1E, FIG. 1G).

p38 MAPK = assay: Collagen-induced phospho-p38 MAPK in platelets (western blot); format: cell-based, human; settings: 5 or 20 μg/ml collagen or 10 nM MMP-1; ARC 0.5 μM, aspirin 1 mM
Description: The effect of pharmacologic blockage of metalloproteases or PAR1 on collagen-dependent platelet aggregation was then tested (see FIG. 5). […] Platelets were pre-incubated for 5 min with the thrombin inhibitors PPACK (200 μM) or hirudin (1 U/ml), the Zn-chelator 1,10-phenanthroline (1,10-PA; 100 μM), the broad spectrum metalloprotease inhibitor MMP-200 (200 nM), the MMP-1 inhibitor FN-439 (3 μM), the PAR1 ligand binding site inhibitor RWJ-56110 (1 μM), the PAR1 blocking antibody (75 μg/ml), the PAR1 pepducin lipopeptides P1pal-12 (3 μM) or P1pal-7 (3 μM), the PAR4 pepducin lipopeptide P4pal-10 (3 μM), MMP-8 inhibitor (25 nM) or MMP9/13 inhibitor (10 nM).
In FIG. 5B, platelets were treated as in FIG. 5A and then lysed with Laemmli sample buffer 5 min after addition of collagen, p38 MAPK activity was then assessed by western blot with a p38 MAPK phospho-Ab and total p38 loading was determined using a p38 MAPK antibody.

Rho-GTP = assay: Collagen-induced Rho-GTP activity in platelets (western blot); format: cell-based, human; settings: 5 or 20 μg/ml collagen or 10 nM MMP-1; ARC 0.5 μM, aspirin 1 mM
Description: In FIG. 5C, platelets were treated as in FIG. 5B and then Rho GTP activity was assessed by western blot.
Representative blots are shown at the bottom of FIGS. 5B-D. Data are the mean±s.d. of three experiments. P*<0.01, #<0.05.

platelets [4] = assay: Platelet thrombus formation on collagen surface under arterial flow, heparin-anticoagulated whole blood; format: cell-based, human; settings: heparin 10 U/mL; shear rate 1,000 s-1; FN-439 3 μM, RWJ-56110 1 μM, pepducins 3 μM, aspirin 1 mM
Description: Following incubation with inhibitors, the blood was perfused over a glass slide coated with fibrillar collagen type I.
A flow chamber (Glycotech) with Type-I fibrillar collagen-coated glass slides was mounted on the stage of an IMT-2 inverted microscope (Olympus) equipped with Retiga 1300 digital camera (QImaging) and 40× objective. One of the flow chamber inlets was connected to a syringe pump (Harvard Apparatus) calibrated to create a shear rate of 1,000^s-1. The whole blood pretreated with the various pharmacologic inhibitors was then perfused over the collagen-coated glass slide. After 2-15 min of perfusion, blood was removed from the flow chamber by gentle displacement with PIPES buffer and images of 8-10 fields were acquired using OpenLab software (Improvision). Acquired images were further analyzed using NIH Image 1.63 software. Images were first sharpened and the edges of separate platelets and platelet aggregates were determined. Following the adjustment of threshold, images were converted into the binary format, and the particle analysis function was activated to highlight the regions covered by platelets with the sensitivity set to one single adherent thrombocyte. For the conversion of pixels into square micrometers, a calibration curve was built using 2.5, 6, 20, 25, and 45 μm polystyrene beads (Polyscience) using acquisition conditions identical to the experimental. The mean area of formed thrombus was determined at 7 min. Area measurements in FIG. 6B represent the mean±s.e. of three separate experiments from five different blood donors.

platelets [5] = assay: Platelet thrombus formation on collagen surface under arterial flow, CTI-anticoagulated whole blood; format: cell-based, human; settings: CTI 30 μg/mL, hirudin 0.0013 U/mL, aspirin 1 mM
Description: Collagen-activated platelets also provide a pro-coagulant surface and produce tissue factor, which aids in the production of thrombin (Giesen at al., 1999; Mackman, 2004; Schwertz et al., 2006).
Whole blood was anti-coagulated with CTI (30 μg/mL) to block the contact pathway, otherwise the experiments were conducted identically as in FIG. 6A. Hirudin was used as indicated at 0.0013 UImL.

PAR1 [6] = molecular target: T1, PAR1 (Homo sapiens, UniProt P25116); assay: Platelet shape change (decrease in light transmittance); format: cell-based; settings: washed human platelets pretreated with 2 mM EGTA
T1 construct: able to cleave PAR1 on the surface of human platelets; endogenous in cells; host or cells: gel-filtered or washed human platelets
T1 sequence (P25116 22-425): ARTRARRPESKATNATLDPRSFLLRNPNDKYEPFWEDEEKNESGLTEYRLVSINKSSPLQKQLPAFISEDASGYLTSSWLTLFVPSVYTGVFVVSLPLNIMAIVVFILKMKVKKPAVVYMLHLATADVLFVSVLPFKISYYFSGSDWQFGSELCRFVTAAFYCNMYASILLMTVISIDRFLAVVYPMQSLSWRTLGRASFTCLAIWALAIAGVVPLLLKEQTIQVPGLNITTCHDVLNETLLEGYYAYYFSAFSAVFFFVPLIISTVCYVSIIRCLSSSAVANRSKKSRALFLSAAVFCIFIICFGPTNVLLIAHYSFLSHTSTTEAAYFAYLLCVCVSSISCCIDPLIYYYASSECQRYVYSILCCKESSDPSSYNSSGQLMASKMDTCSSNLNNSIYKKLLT
Description: In FIG. 3C, the ability of the […] peptide (PR-TRAP) to induce a change in platelet shape was determined. Washed human platelets were pretreated with 2 mM EGTA and then treated with the indicated agonists in the presence or absence of 1 μM RWJ-56110 while stirring at 1100 rpm. The decrease in light transmittance is an indication of the platelet shape change reaction.
In FIG. 4B, the ability of MMP-1 to induce platelet shape change was determined. Washed human platelets were pretreated with 2 mM EGTA and then challenged with MMP-1 in the presence or absence of 1 μM RWJ-56110 while stirring at 1100 rpm. Shape change was measured as described above.

PAR1 [7] = molecular target: T1, PAR1; assay: PAR1-dependent RhoA activation (Rho-GTP) in platelets by tethered-ligand peptides; format: cell-based; settings: 30 μM peptide, 5 min, 37° C.
Description: Gel-filtered human platelets, supplemented with 0.3 mg/mL fibrinogen, were treated with 0.2% DMSO vehicle, or 30 μM SFLLRN (TRAP), PR-TRAP or reversed peptide (RP-TRAP), for 5 min at 37° C. in presence or absence of 1 μM RWJ-56110 as indicated. Platelets were lysed and Rho-GTP and total Rho was determined by Western analysis as described in the Experimental Procedures. Western bands were quantified by densitometry and results expressed relative to fold-increase from basal.

PAR1 [8] = molecular target: T1, PAR1; assay: p38 MAPK activation in platelets by tethered-ligand peptides; format: cell-based; settings: 5 min, 37° C.
Description: In FIG. 3B, the effect of the […] peptide (PR-TRAP) on p38 MAPK in platelets was measured. Platelets were stimulated with different concentrations of PR-TRAP, RP-TRAP or TRAP as indicated for 5 min at 37° C. Platelets were lysed with Laemmli sample buffer and proteins assessed by Western blot of p38 MAPK activity with phospho-specific p38 MAPK antibody or total p38MAPK antibody.

c1cnc2c(c1)ccc1cccnc12 [1,10-phenanthroline]
inhibition (loss) of collagen-induced platelet aggregation (platelets [1]): 80%

Bivalirudin: thrombin inhibitor (Angiomax)
mean arterial occlusion time [2]: 20 min

P4pal-10: PAR4 pepducin lipopeptide (SGRRYGHALR; also: lipopeptide ('pal'), lipid and site not given here)
inhibition (loss) of collagen-induced platelet aggregation (platelets [1]): ~10%

CSCCNc1nc(SCCC(F)(F)F)nc2c1ncn2[C@@H]1O[C@H](COP(=O)(O)OP(=O)(O)C(Cl)(Cl)P(=O)(O)O)[C@@H](O)[C@H]1O [AR-C69931MX]
block of collagen-induced release of PAR1 N-terminal peptide (PAR1 [3]; 5 μg/ml collagen, 10 min, 37° C., Ab 20 μg/ml, ARC 0.5 μM, ASA 1 mM): no effect
suppression of aggregation to collagen (platelets [1]; ARC 0.5 μM, aspirin 1 mM): could still suppress
effect on activation of phospho-p38 MAPK (p38 MAPK): no effect
effect on activation of Rho-GTP (Rho-GTP): no effect

NC(N)=NCCC[C@H](NC(=O)[C@@H]1CCCN1C(=O)[C@H](N)Cc1ccccc1)C(=O)CCl [PPACK]
inhibition (loss) of collagen-induced platelet aggregation (platelets [1]): no effect

P1pal-12: PAR1 i3 loop pepducin lipopeptide, RCLSSSAVANRS (SEQ ID NO. 3), palmitate (also: palmitate, site not given here)
inhibition (loss) of collagen-induced platelet aggregation (platelets [1]): identical levels of inhibition as blocking MMP-1
attenuation of growth rate and size of platelet aggregate strings (platelets [4]): ~75%

hirudin
block of thrombin-induced release of N-terminal cleavage peptide of PAR1 (PAR1 [3]; 3 nM thrombin, 0.00013 U hirudin): blocked
inhibition (loss) of collagen-induced platelet aggregation (platelets [1]): no effect
effect on size of platelet micro-thrombi on collagen surfaces (platelets [5]): no effect

DPR-TRAP: peptide corresponding to cleavage at L38↓D39PRSFLLRN (DPRSFLLRN; PAR1 N-terminal extracellular mutant)
agonist activity, platelet shape change (PAR1 [6]): nearly no activity

R-TRAP: peptide corresponding to cleavage at LDP40↓R41SFLLRN (RSFLLRN)
agonist activity, platelet shape change (PAR1 [6]): partial agonist activity

PR-TRAP: synthetic peptide PRSFLLRN (SEQ ID NO:1), MMP1-generated tethered ligand of PAR1 (listed as Homo sapiens)
agonist activity, PAR1-dependent Rho signaling in platelets (PAR1 [7]): full agonist
agonist activity, p38 MAPK signaling in platelets (PAR1 [8]): full agonist
agonist activity, platelet shape change (PAR1 [6]): activated changes in platelet shape

RP-TRAP: control peptide in which the first two amino acid residues were reversed (RPSFLLRN; PAR1 N-terminal extracellular mutant)
agonist activity, PAR1-dependent Rho signaling in platelets (PAR1 [7]): did not stimulate
agonist activity, p38 MAPK signaling in platelets (PAR1 [8]): did not stimulate
agonist activity, platelet shape change (PAR1 [6]): did not stimulate
